{
  "source": "patent US20230345946A1",
  "about": "“ANTIVIRAL SURFACES COMPRISING POLYOXOMETALATES AND ZINC MOLYBDATE” (FRIDA GROUP APS, priority 2020, published 2023)",
  "key": {"[1]": {"system": "coronaviruses", "experiment": "EN 14476 (Liquid Disinfectant Test)", "settings": "in 2 hours"}, "[2]": {"system": "coronaviruses", "experiment": "Killing of coronaviruses on treated surfaces versus a control surface", "settings": "in 2 hours", "description": "88% more coronaviruses were killed on the treated surfaces than on a control surface, also in 2 hours."}},
  "data": [
    {"substance": "Paramolybdotungstate [Paramolybdotungstate Mo:W 1:1]", "values": [
      {"measurement": "log reduction of coronaviruses", "setting": "[1]", "value": 4, "unit": "log"},
      {"measurement": "more coronaviruses killed on treated surfaces than on a control surface", "setting": "[2]", "value": 88, "unit": "%"}
    ]}
  ]
}
